Reference: US10206394B2, “Herbicidal compounds” (Syngenta Participations AG, priority 2014, dated 2019)
Where two headings read alike, the source gives them in different places.

Key:
Experiment in all cases: Glasshouse assay for herbicidal activity (pre- and post-emergence), percentage phytotoxicity
Format in all cases: in vivo
[1] = system: Alopecurus myosuroides (ALOMY); settings: Alopecurus myosuroides
How it was run: (§1)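 Potted test plants in standard soil received the compound pre-emergence (day 1) or post-emergence (about day 12). Evaluation: visual damage score from 0% (none) to 100% (total), 15 days after application post-emergence, 20 days pre-emergence.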

Avena fatua (AVEFA) = settings: Avena fatua
How it was run: as §1

[2] = system: Echinochloa crus-galli (ECHCG); settings: Echinochloa crus-galli
How it was run: as §1

Lolium perenne (LOLPE) = settings: Lolium perenne
How it was run: as §1

[3] = post-emergence, 360 h, POST-emergence, rate 250 g/ha, visual score 15 DAA (100%=total damage, 0%=no damage), read-out: Post-emergence herbicidal activity (percentage phytotoxicity) ALOMY POST
[4] = pre-emergence, 480 h, PRE-emergence, rate 250 g/ha, visual score 20 DAA (100%=total damage, 0%=no damage), read-out: Pre-emergence herbicidal activity (percentage phytotoxicity) ALOMY PRE
[5] = post-emergence, 360 h, POST-emergence, rate 250 g/ha, visual score 15 DAA (100%=total damage, 0%=no damage), read-out: Post-emergence herbicidal activity (percentage phytotoxicity) AVEFA POST
[6] = pre-emergence, 480 h, PRE-emergence, rate 250 g/ha, visual score 20 DAA (100%=total damage, 0%=no damage), read-out: Pre-emergence herbicidal activity (percentage phytotoxicity) AVEFA PRE
[7] = post-emergence, 360 h, POST-emergence, rate 250 g/ha, visual score 15 DAA (100%=total damage, 0%=no damage), read-out: Post-emergence herbicidal activity (percentage phytotoxicity) ECHCG POST
[8] = pre-emergence, 480 h, PRE-emergence, rate 250 g/ha, visual score 20 DAA (100%=total damage, 0%=no damage), read-out: Pre-emergence herbicidal activity (percentage phytotoxicity) ECHCG PRE
[9] = post-emergence, 360 h, POST-emergence, rate 250 g/ha, visual score 15 DAA (100%=total damage, 0%=no damage), read-out: Post-emergence herbicidal activity (percentage phytotoxicity) LOLPE POST
[10] = pre-emergence, 480 h, PRE-emergence, rate 250 g/ha, visual score 20 DAA (100%=total damage, 0%=no damage), read-out: Pre-emergence herbicidal activity (percentage phytotoxicity) LOLPE PRE
[11] = post-emergence, 360 h, 250 g/ha, post-emergence, 15 DAA, visual assessment (100%=total damage, 0%=no damage), read-out: Post-emergence herbicidal activity (percentage phytotoxicity) ALOMY POST
[12] = pre-emergence, 480 h, 250 g/ha, pre-emergence, 20 DAA, visual assessment (100%=total damage, 0%=no damage), read-out: Pre-emergence herbicidal activity (percentage phytotoxicity) ALOMY PRE
[13] = post-emergence, 360 h, 250 g/ha, post-emergence, 15 DAA, visual assessment (100%=total damage, 0%=no damage), read-out: Post-emergence herbicidal activity (percentage phytotoxicity) AVEFA POST
[14] = pre-emergence, 480 h, 250 g/ha, pre-emergence, 20 DAA, visual assessment (100%=total damage, 0%=no damage), read-out: Pre-emergence herbicidal activity (percentage phytotoxicity) AVEFA PRE
[15] = post-emergence, 360 h, 250 g/ha, post-emergence, 15 DAA, visual assessment (100%=total damage, 0%=no damage), read-out: Post-emergence herbicidal activity (percentage phytotoxicity) ECHCG POST
[16] = pre-emergence, 480 h, 250 g/ha, pre-emergence, 20 DAA, visual assessment (100%=total damage, 0%=no damage), read-out: Pre-emergence herbicidal activity (percentage phytotoxicity) ECHCG PRE
[17] = post-emergence, 360 h, 250 g/ha, post-emergence, 15 DAA, visual assessment (100%=total damage, 0%=no damage), read-out: Post-emergence herbicidal activity (percentage phytotoxicity) LOLPE POST
[18] = pre-emergence, 480 h, 250 g/ha, pre-emergence, 20 DAA, visual assessment (100%=total damage, 0%=no damage), read-out: Pre-emergence herbicidal activity (percentage phytotoxicity) LOLPE PRE

Compound: COCCN(CCOC)C(=O)CC1CC(=O)C(c2c(C)cc(-c3ncc(F)cc3F)cc2C)C1=O (stereo not drawn) [Compound B266]
- pest or weed control at 250 g/ha [1, 3]: 100%
- pest or weed control at 250 g/ha [1, 4]: 100%
- pest or weed control at 250 g/ha (Avena fatua (AVEFA); [5]): 100%
- pest or weed control at 250 g/ha (Avena fatua (AVEFA); [6]): 40%
- pest or weed control at 250 g/ha [2, 7]: 100%
- pest or weed control at 250 g/ha [2, 8]: 100%
- pest or weed control at 250 g/ha (Lolium perenne (LOLPE); [9]): 80%
- pest or weed control at 250 g/ha (Lolium perenne (LOLPE); [10]): 90%

Compound: Cc1cc(-c2ccc(Br)cn2)cc(C)c1C1C(=O)CC(CC(=O)N2CCOCC2)C1=O (stereo not drawn) [Compound B299]
- pest or weed control at 250 g/ha [1, 3]: 90%
- pest or weed control at 250 g/ha [1, 4]: 90%
- pest or weed control at 250 g/ha (Avena fatua (AVEFA); [5]): 90%
- pest or weed control at 250 g/ha (Avena fatua (AVEFA); [6]): 90%
- pest or weed control at 250 g/ha [2, 7]: 100%
- pest or weed control at 250 g/ha [2, 8]: 100%
- pest or weed control at 250 g/ha (Lolium perenne (LOLPE); [9]): 100%
- pest or weed control at 250 g/ha (Lolium perenne (LOLPE); [10]): 100%

Compound: COCC(C)NC(=O)CC1CC(=O)C(c2c(C)cc(-c3ncc(Cl)cn3)cc2C)C1=O (stereo not drawn) [Compound B346]
- pest or weed control at 250 g/ha ([1]; post-emergence, 360 h, Rate 250 g/ha, post-emergence, visual assessment 15 DAA, 100%=total damage, 0%=no damage, read-out: Post-emergence herbicidal activity (percentage phytotoxicity) ALOMY POST): 100%
- pest or weed control at 250 g/ha ([1]; pre-emergence, 480 h, Rate 250 g/ha, pre-emergence, visual assessment 20 DAA, 100%=total damage, 0%=no damage, read-out: Pre-emergence herbicidal activity (percentage phytotoxicity) ALOMY PRE): 100%
- pest or weed control at 250 g/ha (Avena fatua (AVEFA); post-emergence, 360 h, Rate 250 g/ha, post-emergence, visual assessment 15 DAA, 100%=total damage, 0%=no damage, read-out: Post-emergence herbicidal activity (percentage phytotoxicity) AVEFA POST): 100%
- pest or weed control at 250 g/ha (Avena fatua (AVEFA); pre-emergence, 480 h, Rate 250 g/ha, pre-emergence, visual assessment 20 DAA, 100%=total damage, 0%=no damage, read-out: Pre-emergence herbicidal activity (percentage phytotoxicity) AVEFA PRE): 90%
- pest or weed control at 250 g/ha ([2]; post-emergence, 360 h, Rate 250 g/ha, post-emergence, visual assessment 15 DAA, 100%=total damage, 0%=no damage, read-out: Post-emergence herbicidal activity (percentage phytotoxicity) ECHCG POST): 100%
- pest or weed control at 250 g/ha ([2]; pre-emergence, 480 h, Rate 250 g/ha, pre-emergence, visual assessment 20 DAA, 100%=total damage, 0%=no damage, read-out: Pre-emergence herbicidal activity (percentage phytotoxicity) ECHCG PRE): 100%
- pest or weed control at 250 g/ha (Lolium perenne (LOLPE); post-emergence, 360 h, Rate 250 g/ha, post-emergence, visual assessment 15 DAA, 100%=total damage, 0%=no damage, read-out: Post-emergence herbicidal activity (percentage phytotoxicity) LOLPE POST): 100%
- pest or weed control at 250 g/ha (Lolium perenne (LOLPE); pre-emergence, 480 h, Rate 250 g/ha, pre-emergence, visual assessment 20 DAA, 100%=total damage, 0%=no damage, read-out: Pre-emergence herbicidal activity (percentage phytotoxicity) LOLPE PRE): 100%

Compound: Cc1cc(C)c(C2C(=O)CC(CC(=O)NC3CC3C(F)(F)F)C2=O)c(C)c1 (stereo not drawn) [Compound B97]
- pest or weed control at 250 g/ha [1, 11]: 70%
- pest or weed control at 250 g/ha [1, 12]: 80%
- pest or weed control at 250 g/ha (Avena fatua (AVEFA); [13]): 50%
- pest or weed control at 250 g/ha (Avena fatua (AVEFA); [14]): 0%
- pest or weed control at 250 g/ha [2, 15]: 80%
- pest or weed control at 250 g/ha [2, 16]: 90%
- pest or weed control at 250 g/ha (Lolium perenne (LOLPE); [17]): 70%
- pest or weed control at 250 g/ha (Lolium perenne (LOLPE); [18]): 80%

Compound: CCN(C)C(=O)CC1CC(=O)C(c2c(C)cc(C)cc2C)C1=O (stereo not drawn) [Compound A160]
- pest or weed control at 250 g/ha ([1]; post-emergence, 360 h, Rate 250 g/ha, post-emergence, assessed visually 15 DAA, 100%=total damage, 0%=no damage, read-out: Post-emergence herbicidal activity (percentage phytotoxicity) ALOMY POST): 70%
- pest or weed control at 250 g/ha ([1]; pre-emergence, 480 h, Rate 250 g/ha, pre-emergence, assessed visually 20 DAA, 100%=total damage, 0%=no damage, read-out: Pre-emergence herbicidal activity (percentage phytotoxicity) ALOMY PRE): 70%
- pest or weed control at 250 g/ha (Avena fatua (AVEFA); post-emergence, 360 h, Rate 250 g/ha, post-emergence, assessed visually 15 DAA, 100%=total damage, 0%=no damage, read-out: Post-emergence herbicidal activity (percentage phytotoxicity) AVEFA POST): 90%
- pest or weed control at 250 g/ha (Avena fatua (AVEFA); pre-emergence, 480 h, Rate 250 g/ha, pre-emergence, assessed visually 20 DAA, 100%=total damage, 0%=no damage, read-out: Pre-emergence herbicidal activity (percentage phytotoxicity) AVEFA PRE): 80%
- pest or weed control at 250 g/ha ([2]; post-emergence, 360 h, Rate 250 g/ha, post-emergence, assessed visually 15 DAA, 100%=total damage, 0%=no damage, read-out: Post-emergence herbicidal activity (percentage phytotoxicity) ECHCG POST): 90%
- pest or weed control at 250 g/ha ([2]; pre-emergence, 480 h, Rate 250 g/ha, pre-emergence, assessed visually 20 DAA, 100%=total damage, 0%=no damage, read-out: Pre-emergence herbicidal activity (percentage phytotoxicity) ECHCG PRE): 100%
- pest or weed control at 250 g/ha (Lolium perenne (LOLPE); post-emergence, 360 h, Rate 250 g/ha, post-emergence, assessed visually 15 DAA, 100%=total damage, 0%=no damage, read-out: Post-emergence herbicidal activity (percentage phytotoxicity) LOLPE POST): 100%
- pest or weed control at 250 g/ha (Lolium perenne (LOLPE); pre-emergence, 480 h, Rate 250 g/ha, pre-emergence, assessed visually 20 DAA, 100%=total damage, 0%=no damage, read-out: Pre-emergence herbicidal activity (percentage phytotoxicity) LOLPE PRE): 100%

Compound: Cc1cc(C)c(C2C(=O)CC(CC(=O)NCc3cccc(C#N)c3)C2=O)c(C)c1 (stereo not drawn) [Compound B9]
- pest or weed control at 250 g/ha [1, 11]: 70%
- pest or weed control at 250 g/ha [1, 12]: 70%
- pest or weed control at 250 g/ha (Avena fatua (AVEFA); [13]): 70%
- pest or weed control at 250 g/ha (Avena fatua (AVEFA); [14]): 70%
- pest or weed control at 250 g/ha [2, 15]: 70%
- pest or weed control at 250 g/ha [2, 16]: 100%
- pest or weed control at 250 g/ha (Lolium perenne (LOLPE); [17]): 70%
- pest or weed control at 250 g/ha (Lolium perenne (LOLPE); [18]): 90%
